Where “and” joins values, the source holds several entries; their conditions need not be identical. Equal entries are not always repeated.
Experiments:
His-tagged BCL-xL = molecular target: T1, His-tagged BCL-xL (Homo sapiens, UniProt Q07817); assay: AlphaScreen competitive binary binding, BCL-xL (biotin-BAD peptide); settings: for Ki: BCL-xL
T1 construct: purchased Sigma-Aldrich SRP0187
Outline: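 His-tagged BCL-xL (0.5 nM) with 2 nM biotin-BAD peptide, or BCL-2 (1 nM) with 10 nM biotin-BIM peptide, was incubated 2 h with serially diluted compound in HEPES pH 7.5 buffer containing NaCl, BSA and Tween-80. AlphaScreen signal came from His-acceptor and streptavidin-donor beads at 20 µg/ml each. Ki was fitted by competitive binding using measured Kd per protein–peptide pair.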

Kasumi-1 cells = assay: Viability (MTS) of Kasumi-1 AML cells; type: cell-based, human; settings: Fig. 7c; for Luminescence (raw plate reading): Kasumi, 24h
293T cells = assay: Viability (MTS) of 293T cells; type: cell-based, human; settings: for 293T cell viability, MTS absorbance 490 as percent of control, mean of three wells, left block of Plate 29: mean of 3 wells, Plate 29 normalised with blank 0.332667 and control 0.923167 of Plate 30; for 293T cell viability, MTS absorbance 490 as percent of untreated control, single replicate well: normalised to own plate
Experimental: Suspension cells were treated 30 min after seeding, whereas adherent cells were allowed to adhere overnight and were then treated. Compound treatments were prepared in complete cell culture medium and 100 µl of 2× treatment-containing medium were added to each well. Complete cell culture medium without treatment was added in control wells, and wells containing medium without cells served as background. The outer wells of the 96-well plate were not used for treatment and were filled with 250 µl of PBS to reduce evaporation of medium from inner wells. Each compound and/or combination was tested at nine different concentrations with three replicates. The cell viability was measured after 72 h by tetrazolium-based MTS assay. MTS reagent (2 mg ml^–1 stock; cat. no. G1111, Promega) was freshly supplemented with phenazine methosulfate (PMS, 0.92 mg ml^–1 stock, cat. no. P9625, Sigma-Aldrich) in 20:1 ratio, and 20 µl of this mixture was added to each control and treatment well. The cells were incubated for 4 h at 37 °C and 5% CO2, and then the absorbance was recorded at 490 nm using Biotek’s Synergy Neo2 multimode plate reader (Biotek). The average absorbance value of background wells was subtracted from absorbance value of each control and treatment well, and percent cell viability ((At/A0) × 100)) was determined in each treatment well, where At is the absorbance value of the treatment well and A0 is the average absorbance value of control wells after background subtraction. The data were expressed as average percentage cell viability and fitted in non-linear regression curves using GraphPad Prism 7 (GraphPad Software, La Jolla, CA, USA).

T1 sequence (Q07817 whole entry): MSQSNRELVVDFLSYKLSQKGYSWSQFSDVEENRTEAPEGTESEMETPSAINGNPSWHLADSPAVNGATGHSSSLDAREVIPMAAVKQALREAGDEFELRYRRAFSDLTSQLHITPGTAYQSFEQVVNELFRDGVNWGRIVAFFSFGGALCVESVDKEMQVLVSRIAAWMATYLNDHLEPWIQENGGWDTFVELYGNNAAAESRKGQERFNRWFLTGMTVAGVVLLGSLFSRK

With `Cc1ncsc1-c1ccc([C@H](C)NC(=O)[C@@H]2C[C@@H](O)CN2C(=O)[C@@H](NC(=O)CCCCCC(=O)N2CCN(CC[C@H](CSc3ccccc3)Nc3ccc(S(=O)(=O)NC(=O)c4ccc(N5CCN(CC6=C(c7ccc(Cl)cc7)CCC(C)(C)C6)CC5)cc4)cc3S(=O)(=O)C(F)(F)F)CC2)C(C)(C)C)cc1` [DT2216] the “Alpha signal (raw counts)” value (His-tagged BCL-xL; BCL-xL Rep-1, plate row F, 0.0195312 uM) was 894074 and 904357, the “Alpha signal (raw counts)” value (His-tagged BCL-xL; BCL-xL Rep-1, plate row G, 0.00488281 uM) was 1110366 and 1109056 and the “Alpha signal (raw counts)” value (His-tagged BCL-xL; BCL-xL Rep-1, plate row H, 0.0012207 uM) was 1147150 and 1196559. The “Alpha signal (raw counts)” value (His-tagged BCL-xL; BCL-xL Rep-1, plate row I, 0.000305176 uM) was 1192890 and 1163311, the “Alpha signal (raw counts)” value (His-tagged BCL-xL; BCL-xL Rep-1, plate row J, 7.62939e-5 uM) was 1153277 and 1055277 and the “Alpha signal (raw counts)” value (His-tagged BCL-xL; BCL-xL Rep-1, plate row K, 1.90735e-5 uM) was 1140776 and 1328684. The “Alpha signal (raw counts)” value (His-tagged BCL-xL; BCL-xL Rep-2, 7.62939e-5 uM) was 1377571 and 1338961, the “Alpha signal normalised to Maximum/Minimum (inhibition)” value (His-tagged BCL-xL; BCL-xL Rep-2, 0.0012207 uM, 0.0012207 µM) was 12.2985 and the inhibition at 0.0012207 µM (His-tagged BCL-xL; BCL-xL Rep-2, 0.0012207 uM, read-out: Alpha signal normalised to Maximum/Minimum (inhibition)) was 16.2%. The “Alpha signal normalised to Maximum/Minimum (inhibition)” value (His-tagged BCL-xL; BCL-xL Rep-2, 0.00488281 uM, 0.00488281 µM) was 25.1578, the inhibition at 0.00488281 µM (His-tagged BCL-xL; BCL-xL Rep-2, 0.00488281 uM, read-out: Alpha signal normalised to Maximum/Minimum (inhibition)) was 22.8% and the “Alpha signal normalised to Maximum/Minimum (inhibition)” value (His-tagged BCL-xL; BCL-xL Rep-2, 0.0195312 uM, 0.0195312 µM) was 25.456. The inhibition at 0.0195312 µM (His-tagged BCL-xL; BCL-xL Rep-2, 0.0195312 uM, read-out: Alpha signal normalised to Maximum/Minimum (inhibition)) was 35.3%, the “Alpha signal normalised to Maximum/Minimum (inhibition)” value (His-tagged BCL-xL; BCL-xL Rep-2, 0.078125 uM, 0.078125 µM) was 57.5037 and the inhibition at 0.078125 µM (His-tagged BCL-xL; BCL-xL Rep-2, 0.078125 uM, read-out: Alpha signal normalised to Maximum/Minimum (inhibition)) was 60.5%. The “Alpha signal normalised to Maximum/Minimum (inhibition)” value (His-tagged BCL-xL; BCL-xL Rep-2, 0.3125 uM, 0.3125 µM) was 86.3518, the inhibition at 0.3125 µM (His-tagged BCL-xL; BCL-xL Rep-2, 0.3125 uM, read-out: Alpha signal normalised to Maximum/Minimum (inhibition)) was 86.5% and the “Alpha signal normalised to Maximum/Minimum (inhibition)” value (His-tagged BCL-xL; BCL-xL Rep-2, 1.25 uM, 1.25 µM) was 97.814. For the same compound, the inhibition at 1.25 µM (His-tagged BCL-xL; BCL-xL Rep-2, 1.25 uM, read-out: Alpha signal normalised to Maximum/Minimum (inhibition)) was 98.7%, the “Alpha signal normalised to Maximum/Minimum (inhibition)” value (His-tagged BCL-xL; BCL-xL Rep-2, 5 uM, 5 µM) was 100.647 and the inhibition at 5 µM (His-tagged BCL-xL; BCL-xL Rep-2, 5 uM, read-out: Alpha signal normalised to Maximum/Minimum (inhibition)) was 100%. For the same compound, the “Alpha signal (raw counts)” value (His-tagged BCL-xL; BCL-xL Rep-2, plate row B, 5 uM) was 20174 and 14292, the “Alpha signal (raw counts)” value (His-tagged BCL-xL; BCL-xL Rep-2, plate row C, 1.25 uM) was 40445 and 53326 and the “Alpha signal (raw counts)” value (His-tagged BCL-xL; BCL-xL Rep-2, plate row D, 0.3125 uM) was 209031 and 211248. For the same compound, the “Alpha signal (raw counts)” value (His-tagged BCL-xL; BCL-xL Rep-2, plate row E, 0.078125 uM) was 567789 and 608705, the “Alpha signal (raw counts)” value (His-tagged BCL-xL; BCL-xL Rep-2, plate row F, 0.0195312 uM) was 914961 and 1050246 and the “Alpha signal (raw counts)” value (His-tagged BCL-xL; BCL-xL Rep-2, plate row G, 0.00488281 uM) was 1086158 and 1054354. For the same compound, the “Alpha signal (raw counts)” value (His-tagged BCL-xL; BCL-xL Rep-2, plate row H, 0.0012207 uM) was 1178429 and 1231525, the “Alpha signal (raw counts)” value (His-tagged BCL-xL; BCL-xL Rep-2, plate row I, 0.000305176 uM) was 1409371 and 1266044 and the “Alpha signal (raw counts)” value (His-tagged BCL-xL; BCL-xL Rep-2, plate row K, 1.90735e-5 uM) was 1319490 and 1464517. For the same compound, the Ki (His-tagged BCL-xL; mean of the two replicate values (line without label)) was 3.96 nM, the Ki (His-tagged BCL-xL; second value (line without label below Rep-1, apparently Rep-2)) was 2.53 nM and the IC50 (Kasumi-1 cells; Homo sapiens, Kasumi 1, 72 h, read-out: IC50, viability of Kasumi-1 cells) was 1150 nM. For the same compound, the “Luminescence (raw plate reading)” value (Kasumi-1 cells; 2um (plate column 11)) was 404633 and 365594 and 354853 and 362278, the “Luminescence (raw plate reading)” value (Kasumi-1 cells; 4um (plate column 12)) was 138608 and 119804 and 124492 and 119916 and the “293T cell viability, MTS absorbance 490 as percent of control, mean of three wells, left block of Plate 29” value (293T cells; 0.00137174 uM) was 100.343. The “293T cell viability, MTS absorbance 490 as percent of control, single replicate well, left block of Plate 29” value (293T cells; 0.00137174 uM, Plate 29 normalised with blank 0.332667 and control 0.923167 of Plate 30, 0.00137174 µM) was 99.4764 and 95.6851, the “293T cell viability, MTS absorbance 490 as percent of untreated control, single replicate well” value (293T cells; 0.00137174 uM) was 104.404 and 98.1429 and 94.4287 and the “293T cell viability, MTS absorbance 490 as percent of control, mean of three wells, left block of Plate 29” value (293T cells; 0.00411523 uM) was 98.6099. For the same compound, the “293T cell viability, MTS absorbance 490 as percent of control, single replicate well, left block of Plate 29” value (293T cells; 0.00411523 uM, Plate 29 normalised with blank 0.332667 and control 0.923167 of Plate 30, 0.00411523 µM) was 96.0101 and 96.1184, the “293T cell viability, MTS absorbance 490 as percent of untreated control, single replicate well” value (293T cells; 0.00411523 uM) was 102.282 and 94.7471 and 94.8532 and the “293T cell viability, MTS absorbance 490 as percent of control, mean of three wells, left block of Plate 29” value (293T cells; 0.037037 uM) was 101.101. The “293T cell viability, MTS absorbance 490 as percent of control, single replicate well, left block of Plate 29” value (293T cells; 0.037037 uM, Plate 29 normalised with blank 0.332667 and control 0.923167 of Plate 30, 0.037037 µM) was 93.0854 and 104.134, the “293T cell viability, MTS absorbance 490 as percent of untreated control, single replicate well” value (293T cells; 0.037037 uM) was 91.8819 and 102.706 and the “293T cell viability, MTS absorbance 490 as percent of control, mean of three wells, left block of Plate 29” value (293T cells; 0.111111 uM) was 100.235. The “293T cell viability, MTS absorbance 490 as percent of control, single replicate well, left block of Plate 29” value (293T cells; 0.111111 uM, Plate 29 normalised with blank 0.332667 and control 0.923167 of Plate 30, 0.111111 µM) was 95.1435 and 95.2519, the “293T cell viability, MTS absorbance 490 as percent of untreated control, single replicate well” value (293T cells; 0.111111 uM) was 93.8981 and 94.0042 and the “293T cell viability, MTS absorbance 490 as percent of control, mean of three wells, left block of Plate 29” value (293T cells; 0.333333 uM) was 99.5125. The “293T cell viability, MTS absorbance 490 as percent of control, single replicate well, left block of Plate 29” value (293T cells; 0.333333 uM, Plate 29 normalised with blank 0.332667 and control 0.923167 of Plate 30, 0.333333 µM) was 112.042 and 98.7182 and 87.7776, the “293T cell viability, MTS absorbance 490 as percent of untreated control, single replicate well” value (293T cells; 0.333333 uM) was 110.453 and 97.4001 and 86.682 and the “293T cell viability, MTS absorbance 490 as percent of control, mean of three wells, left block of Plate 29” value (293T cells; 1 uM) was 99.007. The “293T cell viability, MTS absorbance 490 as percent of control, single replicate well, left block of Plate 29” value (293T cells; 1 uM, Plate 29 normalised with blank 0.332667 and control 0.923167 of Plate 30, 1 µM) was 110.742 and 102.834 and 83.4447, the “293T cell viability, MTS absorbance 490 as percent of untreated control, single replicate well” value (293T cells; 1 uM) was 109.179 and 101.433 and 82.4372 and the “293T cell viability, MTS absorbance 490 as percent of control, mean of three wells, left block of Plate 29” value (293T cells; 3 uM) was 87.4526. For the same compound, the “293T cell viability, MTS absorbance 490 as percent of control, single replicate well, left block of Plate 29” value (293T cells; 3 uM, Plate 29 normalised with blank 0.332667 and control 0.923167 of Plate 30, 3 µM) was 93.7353 and 78.0285 and the “293T cell viability, MTS absorbance 490 as percent of untreated control, single replicate well” value (293T cells; 3 uM) was 92.5186 and 77.1312.

Reference: PMC8617031, “Development of a BCL-xL and BCL-2 dual degrader with improved anti-leukemic activity,” (Nature Communications, 2021)
